Data taken from patent US9862712B2, “Benzimidazole based EGFR inhibitors” (COUNCIL OF SCIENTIFIC & INDUSTRIAL RESEARCH, priority 2014, dated 2018).
Entries after “also recorded” stand apart in the source; their conditions may differ.

Columns and labels:
HOP-62 Cell line = assay: MTT cell proliferation assay, HOP-62 Cell line; type: cell-based; details: for viability at 0.01 µM / viability at 0.1 µM / viability at 2.5 µM / viability at 5 µM / viability at 10 µM: Homo sapiens, 72 h, MTT; for viability at 0.01 µM: HOP-62, 0.01 μM; for viability at 0.1 µM: HOP-62, 0.1 μM; for viability at 2.5 µM: HOP-62, 2.5 μM; for viability at 5 µM: HOP-62, 5 μM; for viability at 10 µM: HOP-62, 10 μM
Procedure: (§1) 1. Protocol Followed for Anti Cancer Activity and Results, Cell Proliferation Assays: Cell lines used herein were purchased from NCCS (National Center for Cell Sciences) Pune, India. Invitro Activity was performed in NCL (National Chemical Laboratory) Pune. Each cell line was plated in 96-well microtiter plates (10,000 cells per well), and serial dilutions of indicated compounds were added. At the end of the incubation period (72 h at 37° C.), cell viability was determined by a tetrazolium dye, MTT (3-(4,5-dimethylthiazol-2-yl)-2,5-diphenyl tetrazolium bromide) (Promega, USA). The formazan crystals were dissolved in DMSO, and the absorbance at 600 nm was recorded using an ELISA plate reader. IC50 values were calculated using nonlinear regression and defined as the concentration needed for a 50% reduction in absorbance of treated versus untreated control cells.
By using the above procedure, the compounds of the invention were tested on HOP-62 Cell line and the results obtained are presented below in table 6, Refer FIG. 3.

MDA-MB-436 Cell line = assay: MTT cell proliferation assay, MDA-MB-436 Cell line; type: cell-based; details: for viability at 0.01 µM / viability at 0.1 µM / viability at 2.5 µM / viability at 5 µM / viability at 10 µM: Homo sapiens, 72 h, MTT; for viability at 0.01 µM: MDA-MB-436, 0.01 μM; for viability at 0.1 µM: MDA-MB-436, 0.1 μM; for viability at 2.5 µM: MDA-MB-436, 2.5 μM; for viability at 5 µM: MDA-MB-436, 5 μM; for viability at 10 µM: MDA-MB-436, 10 μM
Procedure: as §1
By using the above procedure, the compounds of the invention were tested on MDA-MB-436 Cell line and the results obtained are presented below in table 7, Refer FIG. 4.

[1] = tested on: A549 Cell line (Lung Cancer Cell line); assay: MTT cell proliferation assay, A549 Cell line; type: cell-based, human; details: for viability at 0.01 µM / viability at 0.1 µM / viability at 2.5 µM / viability at 5 µM / viability at 10 µM: Homo sapiens, 72 h, MTT; for viability at 0.01 µM: A549, 0.01 μM; for viability at 0.1 µM: A549, 0.1 μM; for viability at 2.5 µM: A549, 2.5 μM; for viability at 5 µM: A549, 5 μM; for viability at 10 µM: A549, 10 μM
Procedure: as §1
By using the above procedure, the compounds of the invention were tested on A549 Cell line and the results obtained are presented below in table 4, Refer FIG. 1.

[2] = tested on: U87MG Cell line (Glioblastoma cell line); assay: MTT cell proliferation assay, U87MG Cell line; type: cell-based; details: for viability at 0.01 µM / viability at 0.1 µM / viability at 2.5 µM / viability at 5 µM / viability at 10 µM: Homo sapiens, U-87 MG, U87MG, 72 h, MTT
Procedure: as §1
By using the above procedure, the compounds of the invention were tested on U87MG Cell line (glioblastoma cell line) and the results obtained are presented below in table 8, Refer FIG. 5.

MCF-7 Cell line = assay: MTT cell proliferation assay, MCF-7 Cell line; type: cell-based; details: for viability at 0.01 µM / viability at 0.1 µM / viability at 2.5 µM / viability at 5 µM / viability at 10 µM: Homo sapiens, MCF7, 72 h, MTT; for viability at 0.01 µM: MCF-7, 0.01 μM; for viability at 0.1 µM: MCF-7, 0.1 μM; for viability at 2.5 µM: MCF-7, 2.5 μM; for viability at 5 µM: MCF-7, 5 μM; for viability at 10 µM: MCF-7, 10 μM
Procedure: as §1
Table 4 indicates anticancer activity against A549 Cell line. The Gefitinib was used as standard and % cell Viable was measured compared to control. The procedure used was MTT assay as mentioned. […] By using the above procedure, the compounds of the invention were tested on MCF-7 Cell line and the results obtained are presented below in table 5, Refer FIG. 2.

Log P (Table 3) = type: physicochemical; details: no method given
[3] = compared among 15 molecules and with Gefitinib, listed as M1

| Compound | viability at 0.01 µM (HOP-62 Cell line) [%] | viability at 0.1 µM (HOP-62 Cell line) [%] | viability at 2.5 µM (HOP-62 Cell line) [%] | viability at 5 µM (HOP-62 Cell line) [%] | viability at 10 µM (HOP-62 Cell line) [%] | viability at 0.01 µM (MDA-MB-436 Cell line) [%] | viability at 0.1 µM (MDA-MB-436 Cell line) [%] | viability at 2.5 µM (MDA-MB-436 Cell line) [%] | viability at 5 µM (MDA-MB-436 Cell line) [%] | viability at 10 µM (MDA-MB-436 Cell line) [%] | viability at 0.01 µM [1] [%] | viability at 0.1 µM [1] [%] | viability at 2.5 µM [1] [%] | viability at 5 µM [1] [%] | viability at 10 µM [1] [%] | viability at 0.01 µM [2] [%] | viability at 0.1 µM [2] [%] | viability at 2.5 µM [2] [%] | viability at 5 µM [2] [%] | viability at 10 µM [2] [%] | further results |
| --- | --- | --- | --- | --- | --- | --- | --- | --- | --- | --- | --- | --- | --- | --- | --- | --- | --- | --- | --- | --- | --- |
| Nc1nc(Nc2ccccc2)sc1-c1nc2ccccc2[nH]1 [Molecule S4-M1, 5-(1H-benzo[d]imidazol-2-yl)-N^2-phenylthiazole-2,4-diamine] | 54.1 | 42.1 | 34.1 | 22.1 | 12.9 | 82.8 | 70.4 | 67.1 | 54.6 | 40.9 | 49.1 | 39.1 | 29.1 | 15.1 | 10.9 | 40.8 | 32.4 | 23.1 | 14.6 | 8.94 | anticancer activity against HOP-62 Cell line (in words) (HOP-62 Cell line; [3]): most active; also recorded: Invitro activity comparable to standard Gefitinib; anticancer activity against MDA-MB-436 Cell line (in words) (MDA-MB-436 Cell line; [3]): most active; also recorded: Invitro activity comparable to standard Gefitinib; anticancer activity against A549 Cell line (in words) ([1]; compared among 15 molecules and with Gefitinib): most active; anticancer activity against U87-MG Cell line (in words) ([2]; compared among 15 molecules): most active; melting point: 268 to 270 °C; viability at 0.01 µM (MCF-7 Cell line): 69.8%; viability at 0.1 µM (MCF-7 Cell line): 60.4%; viability at 2.5 µM (MCF-7 Cell line): 49.1%; viability at 5 µM (MCF-7 Cell line): 42.6%; viability at 10 µM (MCF-7 Cell line): 30.9%; anticancer activity against MCF-7 Cell line (in words) (MCF-7 Cell line; compared among 15 molecules, listed as M1): most active; also recorded: showing Invitro activity; logP (Log P (Table 3)): 3.02 |
| Nc1nc(Nc2ccc([N+](=O)[O-])cc2)sc1-c1nc2ccccc2[nH]1 [Molecule S4-M3, 5-(1H-benzo[d]imidazol-2-yl)-N^2-(4-nitrophenyl)thiazole-2,4-diamine] | 99.6 | 94.4 | 90.8 | 90.8 | 88.8 | 99.6 | 94.4 | 90.8 | 79.8 | 66.8 | 97.6 | 90.4 | 81.8 | 71.8 | 62.8 | 96.6 | 82.4 | 69.8 | 55.8 | 30.8 | melting point: 260 to 262 °C; viability at 0.01 µM (MCF-7 Cell line): 99.6%; viability at 0.1 µM (MCF-7 Cell line): 92.4%; viability at 2.5 µM (MCF-7 Cell line): 90.8%; viability at 5 µM (MCF-7 Cell line): 84.8%; viability at 10 µM (MCF-7 Cell line): 72.8%; logP (Log P (Table 3)): 3.32 |
| COc1ccc(Nc2nc(N)c(-c3nc4c(C)cccc4[nH]3)s2)cc1 [Molecule S4-M15, N^2-(4-methoxyphenyl)-5-(4-methyl-1H-benzo[d]imidazol-2-yl)thiazole-2,4-diamine] | 104 | 98.7 | 92.7 | 81.7 | 77.3 | 96.1 | 94.9 | 90.7 | 81.7 | 71.3 | 93.1 | 79.7 | 68.3 | 59.3 | 49.3 | 89.1 | 82.9 | 71.7 | 59.7 | 48.3 | viability at 0.01 µM (MCF-7 Cell line): 92.1%; viability at 0.1 µM (MCF-7 Cell line): 89.9%; viability at 2.5 µM (MCF-7 Cell line): 75.7%; viability at 5 µM (MCF-7 Cell line): 70.7%; viability at 10 µM (MCF-7 Cell line): 61.3% |
| Cc1ccc2[nH]c(-c3sc(Nc4ccc(Cl)cc4)nc3N)nc2c1 [Molecule S4-M12, N^2-(4-chlorophenyl)-5-(5-methyl-1H-benzo[d]imidazol-2-yl)thiazole-2,4-diamine] | 102 | 95.4 | 92.9 | 85.9 | 79.9 | 94.1 | 89.4 | 79.9 | 65.9 | 51.8 | 93.1 | 81.4 | 69.9 | 58.9 | 49.9 | 92.1 | 81.4 | 73.9 | 61.9 | 49.8 | viability at 0.01 µM (MCF-7 Cell line): 99.1%; viability at 0.1 µM (MCF-7 Cell line): 91.4%; viability at 2.5 µM (MCF-7 Cell line): 85.9%; viability at 5 µM (MCF-7 Cell line): 74.9%; viability at 10 µM (MCF-7 Cell line): 70.8% |
| Cc1ccc2[nH]c(-c3sc(Nc4cccc(C(F)(F)F)c4)nc3N)nc2c1 [Molecule S4-M13, N^2-(3-(trifluoromethyl)phenyl)-5-(5-methyl-1H-benzo[d]imidazol-2-yl)thiazole-2,4-diamine] | 99.4 | 96.9 | 90.4 | 80.6 | 75.6 | 98.4 | 96.9 | 97.4 | 97.6 | 97.9 | 99.4 | 82.9 | 73.6 | 61.6 | 50.6 | 95.8 | 83.7 | 71.2 | 60.8 | 53.8 | viability at 0.01 µM (MCF-7 Cell line): 99.4%; viability at 0.1 µM (MCF-7 Cell line): 92.9%; viability at 2.5 µM (MCF-7 Cell line): 81.4%; viability at 5 µM (MCF-7 Cell line): 72.6%; viability at 10 µM (MCF-7 Cell line): 66.9% |
